A short description of data set [1]: Protein binding in human plasma by equilibrium dialysis. Type of data set: in vitro ADME. Here is the method: (§1) Section S5: In vitro and in vivo studies
(§2) These studies were performed by Contract Research Organisation (CRO) Pharmaron. The methodology provided within the ESI is published within the express permission of this organisation.
(§3) The percentage of a compound recovered during the analysis process should be 100 %; any deviation from this value indicates experimental limitations such as unintended potential non-specific binding events to experimental equipment, solubility issues, etc.
In vitro Absorption, Distribution and Metabolism studies methods:
Protein Binding measurements in human plasma by using equilibrium dialysis:
The fraction unbound in human plasma (P-KB, Ltd People’s hospital of Shandong) was measured using 96-well Equilibrium Dialysis Plate (HTDialysis LLC, Gales Ferry, CT). Human plasma containing 5 µM test compound was dialysed against dialysis buffer (PBS, pH 7.4) with initial samples taken to allow for assessment of plasma stability and recovery before the plate was incubated for 6 hours at 37°C at 5%
CO2. Samples were removed at 6 hours, and all samples were matrix matched and quenched with acetonitrile containing internal standard. Samples were centrifuged at 3,220g for 30 minutes to precipitate protein and enable sampling of supernatant prior to appropr iate dilution for liquid chromatography mass -spectrometry (LC -MS/MS) analysis.
Samples were analysed using a Shimadzu Nexera LC Binary Gradient LC -30AD (Shimadzu Inc, Kyoto), coupled to a Sciex 6500+ (AB Inc., Illinois). Separation was achieved using a XSelect HSS T3 (2.5µm, 2.1 x 50 mm) (Waters Ltd., Wilmslow) column at a temperature of 40°C and a binary mobile phase gradient at a flow rate of 0.8 mL/min. Initial LC conditions comprised of 95% solvent A (0.1% formic acid in water), 5% solvent B (0.1% formic acid in acetonitrile); this was ramped to 98% B at 0.5 min, held for 0.4 min and then immediately returned to initial conditions. Sample analysis was by electrospray ionisation in combined with multiple reaction monitoring in positive ionisation mode. The ionisation […]

The nature of data set [2]: In vivo pharmacokinetic study, intravenous. Also on record: species or system female CD-1 mice. The note with it: IV 1 mg/kg. Here is the method:
In vitro Absorption, Distribution and Metabolism results […]
In vivo Pharmacokinetic study methods
SSA 5 was dosed at 1 mg/kg to female CD -1 mice (n=3) via an intravenous tail vein bolus administration, dose formulation was a solution in 2% DMSO/98% Water. Blood was sampled from the dorsal metatarsal vein at each time point (n=8) and added to tubes containing anticoagulant K2-EDTA. Blood samples were extracted by protein precipitation. Blood concentrations were calculated through UPLC-MS/MS techniques, with internal standard. The lower limit of quantitation was 6.4 nM. PK parameters were calculated using Phoenix WinNonlin version 8.3.

Data set [3] in a line: Metabolic stability in liver microsomes. Type of data set: in vitro ADME, mouse. Here is the method: as §1, §2, §3
In vitro Absorption, Distribution and Metabolism studies methods: […]
The ionisation
Kinetic Solubility Determination in PBS pH 7.4:
The stock solutions of test and control compounds were prepared in DMSO at 10 mM. From this a 300 µM solution was prepared in duplicate in 100 mM Phosphate Buffered Saline (PBS, pH 7.4 ± 0.1). These solutions were then shaken at 1100rpm for 2 hours at 25°C. […]
Metabolic Stability in Rat, Mouse and Human Liver Microsomes :
The metabolic stability of compounds at a concentration of 1 µM, in rat, mouse and human liver microsomes (BD Gentest, Franklin Lakes NJ) was measured following incubation with hepatic microsomes (0.5 mg of protein / mL) in the presence and absence of cofa ctor (NADPH) at 37 °C.
Aliquots of each incubation were removed at 0.5, 5, 15, 30 and 60 minutes. The reaction was stopped by the addition of cold acetonitrile containing analytical internal standard (IS). […]

The mark [4] stands for this setting: mouse, whole blood, blood, female CD-1 mice.

Each structure is given as a SMILES string.

Consider `O=C(O)CNc1c(Nc2ccc(C(F)(F)F)cc2)c(=O)c1=O` [SSA 5], for which, in data set [1] (human plasma, 6 hours), the “% Stability” value worked out at 99.5%. The same compound had a recovery at 6 h, 5 µM in data set [1] (human, plasma, pH 7.4, SSA recovered from the assay after 6 hours) of 102%. The fraction unbound at 6 h, 5 µM in data set [1] (pH 7.4, human plasma proteins, 5 µM, 6 hours incubation at 37 °C, read-out: % Bound (converted)) is 0.076. Moreover, the “Cl Blood as % LBF” value in data set [2] (female CD-1 mice) is given as over 100 % LBF. The concentration at 2 h in data set [2] (female, CD-1, mouse, whole blood, 2 hours following dosing, read-out: blood level at last detected time) was 8.1 nM. Also, the clearance in data set [2] (mouse, whole blood, female CD-1 mice, read-out: Cl Blood) stood at 162 ± 28 mL/min/kg. Besides, the Vd in data set [2] (mouse, whole blood, female CD-1 mice, read-out: Vss) came out at 3.1 ± 1.7 L/kg. This compound returned a Cmax in data set [2] (mouse, whole blood, blood, DMSO:H2O 2:98, female CD-1 mice) of 1200 ± 208 nM. Besides, in data set [2] (setting [4]), the AUC(0-inf) stood at 0.335 ± 0.06 µM·h, the AUC(0-t) came to 0.327 ± 0.057 µM·h and the time to peak (Tmax) is 4.98 min. For the same compound, the half-life in data set [2] (mouse, whole blood, terminal half-life, female CD-1 mice) is 43.8 ± 36.6 min. Besides, the half-life at 1 µM in data set [3] (liver microsomes, mouse microsomes, 1 µM, read-out: In vitro T1/2) is over 185 min. For the same compound, the “Hepatic Extraction Ratio (ER)” value in data set [3] (mouse) is recorded as under 0.26.

As usually defined, the Cmax is the peak of the concentration-time curve. As usually defined, the AUC(0-inf) is total exposure, with the tail of the curve extrapolated. A high value points to more exposure. Usually AUC(0-t) stands for the area under the concentration-time curve up to a stated or last time point. For orientation: Tmax means the time at which the peak concentration occurs.
